Data taken from PubChem BioAssay AID463206 (Broad Institute, 2010).
Active and inactive are the calls of the source.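 Rule for the calls: active = caspase luminescence falls with dose and the half-maximal concentration AC50 from the fitted curve is at or below a set limit; inconclusive = flat fit at 30 to 70% signal loss, or invalid fit; inactive = AC50 above the limit, or signal rises instead.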

System: INS-1E cytokine-induced caspase-3/7, Caspase-Glo luminescence, 48 h
Experiment: inhibitors of cytokine-induced caspase-3/7 activity, dose response, orthogonal assay for beta-cell apoptosis protection project, INS-1E rat cells, luminescence (AID 463206)

Row | Compound | AC50
1 | O=C(N/N=C/c1ccc(O)c2ncccc12)c1cccc(Br)c1 | > 26 µM (inactive)
2 | NC1=C(Br)C(=O)c2ccccc2C1=O | > 26 µM (inactive)
3 | Cc1cc(N2CCN(S(=O)(=O)c3ccc(Cl)cc3)CC2)c2ccccc2n1 | > 12 µM (inactive)
4 | O=C(N/N=C(\c1ccccc1)c1ccccn1)c1cccc([N+](=O)[O-])c1 | > 26 µM (inactive)
5 | Cc1ccc(NC(=O)c2c(C(F)(F)F)nn(C)c2SCc2cccc(C(F)(F)F)c2)cc1C | > 26 µM (inactive)
6 | N=c1c2c(n(Cc3ccc(Br)cc3)c3c1CCC3)CCCC2 | > 26 µM (inactive)
7 | NC1=NC[C@H](Cc2ccc(O)cc2)N1CCCCC1CCCCC1 | > 26 µM (inactive)
8 | CCC1CCCCN1C(=O)c1cc(COc2ccc(-n3cncn3)cc2)on1 (configuration not stated) | > 26 µM (inactive)
9 | Cc1cc2cc(CN3C(=O)c4ccccc4C3=O)ccc2n1C | > 26 µM (inactive)
10 | CC(=O)c1cccc(N=c2scc(-c3ccc(S(=O)(=O)N4CCOCC4)cc3)n2CCO)c1 | > 26 µM (inactive)
11 | O=C(/C(=C/c1ccc(Cl)cc1)c1nc2ccccc2[nH]1)c1ccccc1 | > 26 µM (inactive)
12 | Cc1ccc(-n2c(Cl)c(Cl)nc(Cl)c2=O)cc1 | > 26 µM (inactive)
13 | COc1cc(-c2nc3ccc(C)cn3c2NCc2ccccc2)ccc1-c1cccc(Cl)c1 | > 26 µM (inactive)
14 | CCN(CC(=O)Nc1ccc(NC(C)=O)cc1)C(=O)CCCOc1ccc(C(C)(C)C)cc1 | > 26 µM (inactive)
15 | c1ccc(CNc2c3ccccc3nc3ccccc23)cc1 | 6.14 µM
16 | CCOC(=O)c1sc(NC(=O)Nc2cccc(Cl)c2)cc1C | > 26 µM (inactive)
17 | Cc1ccc(NC(=O)C(C)Sc2nnc(C)n2C2CC2)cc1S(=O)(=O)N1CCOCC1 (configuration not stated) | > 26 µM (inactive)
18 | O=C(CN1CCCc2ccccc21)N/N=C/c1ccccc1O | > 26 µM (inactive)
19 | CCN(CC)S(=O)(=O)c1cc([N+](=O)[O-])ccc1NNC(=O)Nc1ccc(Cl)c(Cl)c1 | > 26 µM (inactive)
20 | CN1/C(=C\C(=S)Nc2ccccc2)C(C)(C)c2ccccc21 | > 26 µM (inactive)
21 | O=C(Nc1ccc(Cl)cc1)Nc1nnc(-c2ccncc2)s1 | > 26 µM (inactive)
22 | O=[N+]([O-])c1ccc(-c2nc(C(Cl)Cl)c3ccccc3n2)cc1 | 0.62 µM
23 | CC1=C(C)/C(=N\OS(=O)(=O)c2ccc(C)cc2)C=CC1=O | > 26 µM (inactive)
24 | O=C(Nc1nc2c(F)cc(F)cc2s1)c1ccccn1 | > 26 µM (inactive)

Row | Compound | AC50
25 | COc1ccccc1NC1=C(N2CCCCC2)C(=O)c2ccccc2C1=O | > 26 µM (inactive)
26 | O=C(Nc1cccnc1)c1cccnc1 | > 26 µM (inactive)
27 | Cc1ccc(-c2ccc(/C=C3\C(=O)ON=C3c3ccccc3)o2)c([N+](=O)[O-])c1 | > 26 µM (inactive)
28 | CCN(CC)c1ccc(N=C2C(=O)Nc3ccccc32)cc1 | > 26 µM (inactive)
29 | CCC(=O)NC(c1cccs1)c1ccc2cccnc2c1O (configuration not stated) | > 26 µM (inactive)
30 | Cc1cc(-c2n[nH]c(=S)n2/N=C/C(Br)=C/c2ccccc2)n[nH]1 | 12.4 µM
31 | C=C1C(=O)O[C@@H]2C[C@@H](C)[C@@H]3C=CC(=O)[C@@]3(C)[C@@H](OC(=O)CC(=O)O[C@H]3[C@@H]4C(=C)C(=O)O[C@@H]4C[C@@H](C)[C@@H]4C=CC(=O)[C@]43C)[C@H]12 | > 26 µM (inactive)
32 | Cc1ccc(Nc2c(-c3ccccn3)nc3ccc(C)cn23)cc1 | > 26 µM (inactive)
33 | CCCC(C)C(=O)Nc1nc(C)c(-c2csc(Nc3ccc(Cl)cc3)n2)s1 (configuration not stated) | > 26 µM (inactive)
34 | Cc1ccc2[nH]c(=O)c(C3C(C#N)=C(N)Oc4c3ccc3cccnc43)cc2c1 (configuration not stated) | > 26 µM (inactive)
35 | O=[N+]([O-])c1cc(Cl)cc(/C=N\Nc2ccccn2)c1O | > 26 µM (inactive)
36 | C/C(=N/NC(=O)c1cccs1)c1c(C)[nH]n(-c2nc3ccccc3s2)c1=O | > 26 µM (inactive)
37 | CCn1c(C)nc2cc(C(=O)N/N=C/c3cccc(O)c3O)ccc21 | > 26 µM (inactive)
38 | CN1N=C(C(C)(C)C)CSC1=Nc1ccccc1 | > 26 µM (inactive)
39 | CCC(=O)NC(c1ccccc1OC)c1ccc2cccnc2c1O (configuration not stated) | > 26 µM (inactive)
40 | Cc1ccccc1CNc1ccc(C(CC(N)=O)NC(=O)c2ccc(Br)cc2)cc1[N+](=O)[O-] (configuration not stated) | > 26 µM (inactive)
41 | COc1ccc(NS(=O)(=O)c2ccc(N3CCCCC3)c(N)c2)cc1 | > 26 µM (inactive)
42 | CCn1c(=NC(=O)c2ccc(S(=O)(=O)N3CCOCC3)cc2)sc2cccc(OC)c21 | > 26 µM (inactive)
43 | Cc1cccc2sc(NNC(=O)c3ccc(S(=O)(=O)N4CCc5ccccc5C4)cc3)nc12 | > 26 µM (inactive)
44 | Cc1cc(/C=N/n2cnnc2)c(C)n1-c1ccc(OCc2ccc(Cl)cc2)cc1 | > 26 µM (inactive)
45 | N#C/C(=N\Nc1ccc(Cl)cc1)C(=O)c1ccccc1 | > 26 µM (inactive)
46 | O=C1C=C(c2cccs2)C[C@H](c2ccccc2)[C@H]1n1nnc([N+](=O)[O-])n1 | > 26 µM (inactive)
47 | CN(C)S(=O)(=O)c1ccc(Oc2ccc(S(=O)(=O)N(C)C)cc2)cc1 | > 26 µM (inactive)
